# In patent publication US9328083B2, “2-aminated methylene or 2-esterified methylene tanshinone derivatives, and preparation method and application thereof” (HANGZHOU BENSHENG PHARMACEUTICAL CO., LTD., priority 2011, dated 2016):
# What was measured:
# [1] = system: H9 (acute lymphoblastic leukemia, ALL); assay: MTT growth inhibition of leukemia cells, 72 h; assay type: cell-based, human; details: Homo sapiens, H9, 72 h; for IC50: read-out: IC50; for IC90: read-out: IC90
# Excerpt: (§1) Leukemia cell lines: leukemia cell lines: K562/adr (drug-resistant, chronic myeloid leukemia, CML), NB4 (acute promyelocytic leukemia, AML), Kasumi-1 (acute myeloid leukemia M2 type, AML-M2), and Jurkat (acute lymphoblastic leukemia, ALL), all of which are donated by Cancer Research Institute of Zhejiang University, China; and H9 (acute lymphoblastic leukemia, ALL), which is purchased from China Center for Type Culture Collection (CCTCC).
# (§2) The standard sample of tanshinone I (TA) and the 2-aminated methylene or 2-esterified methylene tanshinone I derivatives of the present invention are sufficiently dissolved with dimethylsulfoxide to produce a stock solution of 10 mg/mL, which is refrigerated at 4° C. and stored in dark, and is diluted with a cell culture medium to the desired concentration prior to experimentation.
# (§3) Obtaining 6000 well-growing leukemia cells and inoculating them into wells of a 96-well cell culture plate. The culture medium is the RPMI-1640 cell culture medium containing 10% fetal bovine serum. After adding on the second day the 2-aminated methylene or 2-esterified methylene tanshinone I derivatives of different concentrations and mixing uniformly, placing the plate in a carbon dioxide cell incubator (5% CO2) at 37° C. and incubated for 72 hours. Then the viable cell concentration is determined by MTT method.
# [2] = system: Jurkat (acute lymphoblastic leukemia, ALL); assay: MTT growth inhibition of leukemia cells, 72 h; assay type: cell-based, human; details: Homo sapiens, 72 h; for IC50: read-out: IC50; for IC90: read-out: IC90
# Excerpt: as §1, §2, §3
# [3] = system: K562/adr (drug-resistant, chronic myeloid leukemia, CML); assay: MTT growth inhibition of leukemia cells, 72 h; assay type: cell-based, human; details: Homo sapiens, K562/Adr; for IC50: read-out: IC50; for IC90: read-out: IC90
# Excerpt: as §1, §2, §3
# [4] = system: Kasumi-1 (acute myeloid leukemia M2 type, AML-M2); assay: MTT growth inhibition of leukemia cells, 72 h; assay type: cell-based, human; details: Homo sapiens, Kasumi-1, 72 h; for IC50: read-out: IC50; for IC90: read-out: IC90
# Excerpt: as §1, §2, §3
# [5] = system: NB4 (acute promyelocytic leukemia, AML); assay: MTT growth inhibition of leukemia cells, 72 h; assay type: cell-based, human; details: Homo sapiens, NB4, 72 h; for IC50: read-out: IC50; for IC90: read-out: IC90
# Excerpt: as §1, §2, §3
# [6] = system: RPMI8226 (multiple myeloma); assay: MTT growth inhibition of multiple myeloma cells, 72 h; assay type: cell-based, human; details: Homo sapiens, RPMI 8226, 72 h; for IC50: read-out: IC50; for IC90: read-out: IC90
# Description: Myeloma cell lines: RPMI8226 (multiple myeloma), purchased from Fuxiang Bio-tech Co. Ltd., Shanghai, China.
# as §2
# as §3, with “myeloma” for “leukemia”, “cells as above” for “cells”, “1640” for “RPMI-1640”, “adding” for “adding on the second day”
# A549 (human lung cancer) = assay: MTT growth inhibition of human solid tumor cells, 72 h; assay type: cell-based; details: Homo sapiens, A549, 72 h; for IC50: read-out: IC50; for IC90: read-out: IC90
# Description: (§4) Hep-2 (laryngeal carcinoma), A549 (human lung cancer), CaES-17 (esophageal cancer cell), PC-3 (prostate cancer), CNE (nasopharyngeal carcinoma cell), and SK-OV-3 (ovarian cancer cell), all of which are purchased from China Center For Type Culture Collection; RKO (human colon adenocarcinoma cell), MGC 803 (human gastric cancer cell), MG63 (osteosarcoma) and U87 MG (malignant glioma cell), all of which are purchased from Fuxiang Bio-tech Co. Ltd., Shanghai, China; PANC-1 (pancreatic cancer), Hep G2 (human liver cancer cell), Becap37 (human breast cancer cell) and Hela (human cervical cancer cell), all of which are donated by Cancer Research Institute of Zhejiang University, China.
# as §2
# (§5) Obtaining 4000 well-growing human solid tumor cells and inoculating them into wells of a 96-well cell culture plate. The culture medium is DMEM High Glucose cell culture medium containing 10% fetal bovine serum. The plate is placed in a carbon dioxide cell incubator (5% CO2) at 37° C. and incubated for 24 hours. After adding the 2-aminated methylene or 2-esterified methylene tanshinone I derivatives of different concentrations and mixing uniformly, the plate is placed in a carbon dioxide cell incubator (5% CO2) at 37° C. and incubated for 72 hours. Then the viable cell concentration is determined by the MTT method.
# [7] = system: Becap37 (human breast cancer cell); assay: as above; assay type: cell-based; details: Homo sapiens, Becap-37, 72 h; for IC50: read-out: IC50; for IC90: read-out: IC90
# Description: as §4, §2, §5
# [8] = system: CNE (nasopharyngeal carcinoma cell); assay: as above; assay type: cell-based; details: Homo sapiens; for IC50: read-out: IC50; for IC90: read-out: IC90
# Description: as §4, §2, §5
# [9] = system: CaES-17 (esophageal cancer cell); assay: as above; assay type: cell-based; details: Homo sapiens, CaEs17, CaEs-17, 72 h; for IC50: read-out: IC50; for IC90: read-out: IC90
# Description: as §4, §2, §5
# [10] = system: Hela (human cervical cancer cell); assay: as above; assay type: cell-based; details: Homo sapiens, HeLa, 72 h; for IC50: read-out: IC50; for IC90: read-out: IC90
# Description: as §4, §2, §5
# [11] = system: Hep G2 (human liver cancer cell); assay: as above; assay type: cell-based; details: Homo sapiens, HepG2, Hep G2, 72 h; for IC50: read-out: IC50; for IC90: read-out: IC90
# Description: as §4, §2, §5
# [12] = system: Hep-2 (laryngeal carcinoma); assay: as above; assay type: cell-based; details: Homo sapiens, HEp-2, 72 h; for IC50: read-out: IC50; for IC90: read-out: IC90
# Description: as §4, §2, §5
# MG63 (osteosarcoma) = assay: as above; assay type: cell-based; details: Homo sapiens, MG-63, 72 h; for IC50: read-out: IC50; for IC90: read-out: IC90
# Description: as §4, §2, §5
# [13] = system: MGC 803 (human gastric cancer cell); assay: as above; assay type: cell-based; details: Homo sapiens, MGC-803, 72 h; for IC50: read-out: IC50; for IC90: read-out: IC90
# Description: as §4, §2, §5
# [14] = system: PANC-1 (pancreatic cancer); assay: as above; assay type: cell-based; details: Homo sapiens, PANC-1, 72 h; for IC50: read-out: IC50; for IC90: read-out: IC90
# Description: as §4, §2, §5
# PC-3 (prostate cancer) = assay: as above; assay type: cell-based; details: Homo sapiens, PC-3, 72 h; for IC50: read-out: IC50; for IC90: read-out: IC90
# Description: as §4, §2, §5
# [15] = system: RKO (human colon adenocarcinoma cell); assay: as above; assay type: cell-based; details: Homo sapiens; for IC50: read-out: IC50; for IC90: read-out: IC90
# Description: as §4, §2, §5
# [16] = system: SK-OV-3 (ovarian cancer cell); assay: as above; assay type: cell-based; details: Homo sapiens, SK-OV-3, 72 h; for IC50: read-out: IC50; for IC90: read-out: IC90
# Description: as §4, §2, §5
# [17] = system: U87 MG (malignant glioma cell); assay: as above; assay type: cell-based; details: Homo sapiens, U-87 MG, U87-MG, 72 h; for IC50: read-out: IC50; for IC90: read-out: IC90
# Description: as §4, §2, §5
IC50 [1],IC90 [1],IC50 [2],IC90 [2],IC50 [3],IC90 [3],IC50 [4],IC90 [4],IC50 [5],IC90 [5],IC50 [6],IC90 [6],IC50 (A549 (human lung cancer)),IC90 (A549 (human lung cancer)),IC50 [7],IC90 [7],IC50 [8],IC90 [8],IC50 [9],IC90 [9],Structure (SMILES),other results
3.75 µg/mL,15.3 µg/mL,3 µg/mL,7.56 µg/mL,1.26 µg/mL,4.6 µg/mL,1.48 µg/mL,3.89 µg/mL,3.73 µg/mL,10.4 µg/mL,7.76 µg/mL,16 µg/mL,6.5 µg/mL,23.4 µg/mL,16 µg/mL,> 16 µg/mL,> 16 µg/mL,> 16 µg/mL,> 16 µg/mL,> 16 µg/mL,Cc1c(CN(C)CCOC(=O)OC(C)C)oc2c1C(=O)C(=O)c1c-2ccc2c(C)cccc12 [BS-TA-63],IC50 [10]: 8.77 µg/mL; IC90 [10]: > 16 µg/mL; IC50 [11]: 15.7 µg/mL; IC90 [11]: > 16 µg/mL; IC50 [12]: 3.39 µg/mL; IC90 [12]: 22.4 µg/mL; IC50 (MG63 (osteosarcoma)): 14.1 µg/mL; IC90 (MG63 (osteosarcoma)): > 16 µg/mL; IC50 [13]: 14.9 µg/mL; IC90 [13]: > 16 µg/mL; IC50 [14]: 4.92 µg/mL; IC90 [14]: 20.9 µg/mL; IC50 (PC-3 (prostate cancer)): 5.83 µg/mL; IC90 (PC-3 (prostate cancer)): 18.9 µg/mL; IC50 [15]: 1.86 µg/mL; IC90 [15]: 17.6 µg/mL; IC50 [16]: > 16 µg/mL; IC90 [16]: > 16 µg/mL; IC50 [17]: 15.8 µg/mL; IC90 [17]: > 16 µg/mL
0.59 µg/mL,1.63 µg/mL,0.54 µg/mL,1.92 µg/mL,0.84 µg/mL,2.82 µg/mL,0.33 µg/mL,0.7 µg/mL,0.25 µg/mL,0.87 µg/mL,0.4 µg/mL,0.92 µg/mL,1.4 µg/mL,4.46 µg/mL,0.77 µg/mL,1.67 µg/mL,1.8 µg/mL,3.8 µg/mL,0.88 µg/mL,1.85 µg/mL,Cc1c(CN(C)CCOC(=O)C2CCNCC2)oc2c1C(=O)C(=O)c1c-2ccc2c(C)cccc12 [BS-TA-64],IC50 [10]: 2.16 µg/mL; IC90 [10]: 3.9 µg/mL; IC50 [11]: 1.31 µg/mL; IC90 [11]: 3.66 µg/mL; IC50 [12]: 1.67 µg/mL; IC90 [12]: 3.65 µg/mL; IC50 (MG63 (osteosarcoma)): 0.82 µg/mL; IC90 (MG63 (osteosarcoma)): 2.16 µg/mL; IC50 [13]: 0.85 µg/mL; IC90 [13]: 3.24 µg/mL; IC50 [14]: 0.71 µg/mL; IC90 [14]: 5.07 µg/mL; IC50 (PC-3 (prostate cancer)): 1.8 µg/mL; IC90 (PC-3 (prostate cancer)): 4.15 µg/mL; IC50 [15]: 0.29 µg/mL; IC90 [15]: 5.56 µg/mL; IC50 [16]: 3.55 µg/mL; IC90 [16]: 7.76 µg/mL; IC50 [17]: 1.16 µg/mL; IC90 [17]: 3.72 µg/mL
